US12195427B2, “MASP-2 inhibitors and methods of use” (priority 2018, dated 2025)
pIC50: −log10 of the molar value.

Experiments:
[1] = target: MASP-2 CCP2-SP (Homo sapiens (Human), UniProt O00187); assay: MASP-2 co-crystallization, X-ray crystallography and structure analysis (H-bonds, van der Waals contacts); parameters: van der Waals contact distance, MASP-2 HIS 483 atom CD2 / van der Waals contact distance, MASP-2 HIS 483 atom NE2 / van der Waals contact distance, SER 654 C to compound atom / van der Waals contact distance, SER 654 O to compound atom / van der Waals contact distance, TRP 655 C to compound atom / van der Waals contact distance, MASP-2 GLY 528 atom CA / van der Waals contact distance TRP 655 atom CZ3 / van der Waals contact distance TRP 655 atom N / van der Waals contact distance TRP 655 atom CE3 / van der Waals contact distance GLY 656 atom C / van der Waals contact distance GLY 656 atom CA / van der Waals contact distance GLY 656 atom O / van der Waals contact distance, MASP-2 TYR 607 atom CD1 / van der Waals contact distance, MASP-2 PRO 606 atom O / d(C3,CA1) / d(CA1,N1)2 / d(H4,O1) / d(H4,O2) / d(O1,O2) / d(CA1,O2) / d(CA6,O1) / d(CA6,O2) / d(CA1,C5) / d(O2,H3) / d(N2,C2) / d(CA5,N2) / d(N2,C4) / d(N2,C6) / d(N2,CA3) / d(N2,O3) / d(O4,H2): unit not given beside the values; details: for H-bond distance to MASP-2 GLY 656 atom N / H-bond distance to MASP-2 GLY 656 atom O / H-bond distance to MASP-2 SER 654 atom O: Table A1 (H-Bonds); for H-bond distance to MASP-2 GLY 656 atom N: GLY 656 N; for H-bond distance to MASP-2 GLY 656 atom O: GLY 656 O; for H-bond distance to MASP-2 SER 654 atom O: SER 654 O; for van der Waals contact distance, MASP-2 TYR 607 atom CD1: Table A2-4; for van der Waals contact distance TRP 655 atom CE3: MASP-2 TRP 655 CE3, compound atom in line below; for van der Waals contact distance TRP 655 atom CZ3: MASP-2 TRP 655 CZ3; for Ligand-pharmacophore element distance, pharmacophore element C2 / Ligand-pharmacophore element distance, pharmacophore element C3 / Ligand-pharmacophore element distance, pharmacophore element C4 / Ligand-pharmacophore element distance, pharmacophore element C5 / Ligand-pharmacophore element distance, pharmacophore element C6 / Ligand-pharmacophore element distance, pharmacophore element C7 / Ligand-pharmacophore element distance, pharmacophore element CA1 / Ligand-pharmacophore element distance, pharmacophore element CA2 / Ligand-pharmacophore element distance, pharmacophore element CA3 / Ligand-pharmacophore element distance, pharmacophore element CA4 / Ligand-pharmacophore element distance, pharmacophore element CA5 / Ligand-pharmacophore element distance, pharmacophore element CA6: Table A4-1; for d(N2,CA2) / d(O2,H3) / d(O2,N2): Table A5-2 pharmacophore distance, S3/S4 region; for a(O1, O2, H3) / a(O1, O2, N2) / a(O2, N2, CA2): Table A6-2 pharmacophore angle; for Pharmacophore torsion angle a(O1, O2, N2, CA2): Table A7-2; for van der Waals contact distance, MASP-2 amino acid atom to compound atom: ARG 630;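 for Ligand-pharmacophore element distance, pharmacophore element C2: distance from averaged pharmacophore element to bound ligand; missing value means element absent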;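 for Ligand-pharmacophore element distance, pharmacophore element C3: distance from averaged pharmacophore element to bound ligand; missing value means element absent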;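 for Ligand-pharmacophore element distance, pharmacophore element C4: distance from averaged pharmacophore element to bound ligand; missing value means element absent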;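 for Ligand-pharmacophore element distance, pharmacophore element C5: distance from averaged pharmacophore element to bound ligand; missing value means element absent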
Chain of MASP-2 CCP2-SP (O00187 445-686): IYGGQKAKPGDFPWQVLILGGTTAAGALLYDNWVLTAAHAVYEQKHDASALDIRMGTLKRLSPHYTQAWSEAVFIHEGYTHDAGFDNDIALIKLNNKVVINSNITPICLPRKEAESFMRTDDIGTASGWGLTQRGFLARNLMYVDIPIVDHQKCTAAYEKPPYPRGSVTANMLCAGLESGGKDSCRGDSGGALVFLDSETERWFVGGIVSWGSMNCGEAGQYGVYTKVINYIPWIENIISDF
Chain of MASP-2 CCP2-SP (O00187 364-432 partner): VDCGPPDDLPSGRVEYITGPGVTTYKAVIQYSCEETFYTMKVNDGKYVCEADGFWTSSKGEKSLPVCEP
Outline: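 First, CCP2-SP constructs with or without a 6His tag are produced in E. coli. Crystals are then soaked once or twice with inhibitor, cryoprotected in 20% glycerol or frozen directly, and diffracted at synchrotron beamlines. Phasing uses molecular replacement with parts of 1Q3X.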

[2] = tested on: Lectin Pathway; assay: Lectin Pathway Activation Assay in Human Serum (mannan-coated ELISA, C3c detection); assay type: biochemical; details: 1% human serum
Procedure: Microtiter ELISA plate was coated with mannan from Saccharomyces cerevisiae (Sigma-Aldrich, M7504) for overnight at 4° C. in coating buffer [15 mM Na2CO3, 35 mM NaHCO3].

[3] = Table A5-1 pharmacophore: distance between elements, S2/S1 region
[4] = Table A7-1, between pharmacophore elements of the bound compound
[5] = between pharmacophore elements of the bound compound

Cc1cc(Cl)cc(CNC(=O)[C@H](C)NC(=O)[C@H]2C[C@H](Cc3ccccc3)CN2)c1O [compound 1307, (2R,4S)-4-Benzyl-N—((S)-1-((5-chloro-2-hydroxy-3-methylbenzyl)amino)-1-oxopropan-2-yl)pyrrolidine-2-carboxamide]
H-bond distance to MASP-2 GLY 656 atom N [1]: 2.95
H-bond distance to MASP-2 GLY 656 atom O [1]: 2.86
H-bond distance to MASP-2 SER 654 atom O [1]: 2.91
van der Waals contact distance, MASP-2 HIS 483 atom NE2 ([1]; Table A2-1): 3.5
van der Waals contact distance, MASP-2 GLY 528 atom CA ([1]; Table A2-2): 3.75
van der Waals contact distance, MASP-2 PHE 529 atom CD2 ([1]; Table A2-3): 3.69
van der Waals contact distance, MASP-2 PHE 529 atom CZ ([1]; Table A2-3): 3.86
van der Waals contact distance, MASP-2 TYR 607 atom CD1 [1]: 3.83
van der Waals contact distance, SER 654 C to compound atom ([1]; Table A2-11): 3.79
van der Waals contact distance, VAL 653 CG1 to compound atom ([1]; Table A2-11): 3.47
van der Waals contact distance TRP 655 atom CE3 ([1]; Table A2-13): 3.75
van der Waals contact distance TRP 655 atom CZ3 ([1]; Table A2-13): 3.76
Ligand-pharmacophore element distance, pharmacophore element C2 [1]: 0
Ligand-pharmacophore element distance, pharmacophore element C3 [1]: 0
Ligand-pharmacophore element distance, pharmacophore element C4 [1]: 0
Ligand-pharmacophore element distance, pharmacophore element C5 [1]: 0.37
Ligand-pharmacophore element distance, pharmacophore element C6 [1]: 0
Ligand-pharmacophore element distance, pharmacophore element C7 [1]: 0.76
Ligand-pharmacophore element distance, pharmacophore element CA1 [1]: 1.55
Ligand-pharmacophore element distance, pharmacophore element CA2 [1]: 0.17
Ligand-pharmacophore element distance, pharmacophore element CA3 [1]: 0
Ligand-pharmacophore element distance, pharmacophore element CA4 [1]: 0
Ligand-pharmacophore element distance, pharmacophore element CA5 [1]: 0
Ligand-pharmacophore element distance, pharmacophore element CA6 [1]: 0
d(CA1,C5) [1, 3]: 3.13
d(CA1,O1) [1, 3]: 4.60
d(CA1,O2) [1, 3]: 4.57
d(CA1,O4) [1, 3]: 2.74
d(H4,O1) [1, 3]: 3.15
d(H4,O2) [1, 3]: 3.80
d(O1,O2) [1, 3]: 3.17
d(O4,H2) [1, 3]: 0.98
d(N2,CA2) [1]: 6.14
d(O2,H3) [1]: 2.09
d(O2,N2) [1]: 2.81
a(C5, CA1, O1) ([1]; Table A6-1 pharmacophore angle): 161.35
a(CA1, O1, O2) ([1]; Table A6-1 pharmacophore angle): 109.57
a(CA1, O4, H2) ([1]; Table A6-1 pharmacophore angle): 127.11
a(O1, CA1, C7) ([1]; Table A6-1 pharmacophore angle): 121.00
a(O1, CA1, O4) ([1]; Table A6-1 pharmacophore angle): 66.49
a(O1, O2, H4) ([1]; Table A6-1 pharmacophore angle): 126.83
a(O1, O2, H3) [1]: 129.22
a(O1, O2, N2) [1]: 142.81
a(O2, N2, CA2) [1]: 155.37
Pharmacophore torsion angle a(C5, CA1, O1, H4) [1, 4]: −6.78
Pharmacophore torsion angle a(C7, CA1, O1, H4) [1, 4]: −161.01
Pharmacophore torsion angle a(H4, O1, O2, H3) [1, 4]: −163.22
Pharmacophore torsion angle a(H4, O1, O2, N2) [1, 4]: −170.13
Pharmacophore torsion angle a(O1, H4, O2, CA1) [1, 4]: −88.47
Pharmacophore torsion angle a(O1, O2, N2, CA2) [1, 5]: 138.35
pIC50 [2]: 6.30 to 7.30

C[C@H](NC(=O)[C@H]1C[C@H](Cc2ccccc2)CN1)C(=O)NCc1cnc2[nH]cc(Cl)c2c1 [compound 1334, (2R,4S)-4-Benzyl-N—((S)-1-(((3-chloro-1H-pyrrolo[2,3-b]pyridin-5-yl)methyl)amino)-1-oxopropan-2-yl)pyrrolidine-2-carboxamide]
H-bond distance to MASP-2 GLY 656 atom N [1]: 3.16
H-bond distance to MASP-2 GLY 656 atom O [1]: 2.83
H-bond distance to MASP-2 SER 654 atom O [1]: 2.81
van der Waals contact distance, MASP-2 HIS 483 atom CD2 ([1]; Table A2-1): 3.66
van der Waals contact distance, MASP-2 HIS 483 atom CE1 ([1]; Table A2-1): 3.84
van der Waals contact distance, MASP-2 PHE 529 atom CD2 ([1]; Table A2-3): 3.73
van der Waals contact distance, MASP-2 TYR 607 atom CD1 [1]: 3.81
van der Waals contact distance, MASP-2 amino acid atom to compound atom ([1]; Table A2-9, AA atoms CG, CZ): 3.89
van der Waals contact distance, MASP-2 amino acid atom to compound atom ([1]; Table A2-9 second part, AA atoms N, NE, NH1): 3.59
van der Waals contact distance TRP 655 atom CE3 ([1]; Table A2-13): 3.66
van der Waals contact distance TRP 655 atom CZ3 ([1]; Table A2-13): 3.67
van der Waals contact distance TRP 655 atom N ([1]; Table A2-13, MASP-2 TRP 655 N): 3.68
Ligand-pharmacophore element distance, pharmacophore element C2 [1]: 0
Ligand-pharmacophore element distance, pharmacophore element C3 [1]: 0
Ligand-pharmacophore element distance, pharmacophore element C4 [1]: 0
Ligand-pharmacophore element distance, pharmacophore element C5 [1]: 0.34
Ligand-pharmacophore element distance, pharmacophore element C6 [1]: 0
Ligand-pharmacophore element distance, pharmacophore element C7 [1]: 0
Ligand-pharmacophore element distance, pharmacophore element CA1 [1]: 1.04
Ligand-pharmacophore element distance, pharmacophore element CA2 [1]: 0.7
Ligand-pharmacophore element distance, pharmacophore element CA3 [1]: 0
Ligand-pharmacophore element distance, pharmacophore element CA4 [1]: 0
Ligand-pharmacophore element distance, pharmacophore element CA5 [1]: 0
Ligand-pharmacophore element distance, pharmacophore element CA6 [1]: 0
d(CA1,C5) [1, 3]: 3.47
d(CA1,O1) [1, 3]: 5.33
d(CA1,O2) [1, 3]: 4.84
d(CA1,O4) [1, 3]: 1.75
d(H4,O1) [1, 3]: 3.14
d(H4,O2) [1, 3]: 3.74
d(O1,O2) [1, 3]: 3.24
d(N2,CA2) [1]: 6.09
d(O2,H3) [1]: 2.99
d(O2,N2) [1]: 2.77
a(C5, CA1, O1) ([1]; Table A6-1 pharmacophore angle): 150.49
a(CA1, O1, O2) ([1]; Table A6-1 pharmacophore angle): 100.10
a(O1, CA1, O4) ([1]; Table A6-1 pharmacophore angle): 68.25
a(O1, O2, H4) ([1]; Table A6-1 pharmacophore angle): 124.74
a(O1, O2, H3) [1]: 136.63
a(O1, O2, N2) [1]: 143.82
a(O2, N2, CA2) [1]: 155.99
Pharmacophore torsion angle a(C5, CA1, O1, H4) [1, 4]: 2.51
Pharmacophore torsion angle a(H4, O1, O2, H3) [1, 4]: 110.57
Pharmacophore torsion angle a(H4, O1, O2, N2) [1, 4]: −172.73
Pharmacophore torsion angle a(O1, H4, O2, CA1) [1, 4]: −93.67
Pharmacophore torsion angle a(O1, O2, N2, CA2) [1, 5]: 133.84
pIC50 [2]: 6.30 to 7.30
